Consider 35 compounds from patent US20230357162A1, “COMPOUNDS, COMPOSITIONS AND METHODS” (Denali Therapeutics Inc., priority 2020, published 2023).

This assay has as its system IL-1β secretion, THP-1 cells. Description: IL-1β secretion assay in PMA-differentiated THP-1 cells stimulated with LPS and nigericin (ELISA readout). Type of assay: cell-based. As to conditions: Homo sapiens, THP-1, inhibition of IL-1β secretion, 25 ng/mL LPS then nigericin. Put shortly: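 THP-1 cells differentiated with 5 ng/mL PMA for 40 h, primed in serum-free medium with 25 ng/mL LPS for 2 h, then compound (0.5% DMSO) for 1 h before nigericin for 2 h at 37°C. Supernatant IL-1β quantified by ELISA; normalized to high (LPS + 5 µM nigericin) and low (LPS only) controls.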
Background: An ELISA detects its analyte on a solid surface through an enzyme-linked reagent.

Where a name gives a salt, the structure may show the parent alone.

For the compound `COc1nn(CC(=O)Nc2ncc(F)cn2)c(=O)c2ccc(C(F)(F)F)cc12` [Example 146, N-(5-fluoropyrimidin-2-yl)-2-[4-methoxy-1-oxo-6-(trifluoromethyl)phthalazin-2-yl]acetamide], the IC50 is less than 10 µM (class column of Table 3) and 0.461 µM (numeric column of Table 3).
In the same order, the values of `O=C(Cn1nc(CF)c2cc(C(F)(F)F)ccc2c1=O)Nc1ncc(F)cn1` [Example 147, 2-[4-(fluoromethyl)-1-oxo-6-(trifluoromethyl)phthalazin-2-yl]-N-(5-fluoropyrimidin-2-yl)acetamide] are less than 10 µM and 0.279 µM.
In the same order, the values of `O=C(Cn1nc(CF)c2c(F)c(Br)ccc2c1=O)Nc1ncc(F)cn1` [Example 148, 2-[6-bromo-5-fluoro-4-(fluoromethyl)-1-oxophthalazin-2-yl]-N-(5-fluoropyrimidin-2-yl)acetamide] are less than 10 µM and 0.097 µM.
The corresponding values for `CSc1nn(CC(=O)Nc2ncc(F)cn2)c(=O)c2ccc(Br)cc12` [Example 149, 2-(6-bromo-4-methylsulfanyl-1-oxophthalazin-2-yl)-N-(5-fluoropyrimidin-2-yl)acetamide] are less than 10 µM and 0.782 µM.
`O=C(Cn1nc(OC2CC2)c2cc(Br)ccc2c1=O)Nc1ncc(F)cn1` [Example 150, 2-(6-bromo-4-cyclopropyloxy-1-oxophthalazin-2-yl)-N-(5-fluoropyrimidin-2-yl)acetamide]: the half-inhibitory concentration (IC50) runs as follows: (class column of Table 3) less than 10 µM; (numeric column of Table 3) 0.127 µM.
The corresponding values for `N#Cc1cnc(NC(=O)Cn2nc(OC3CC3)c3cc(Br)ccc3c2=O)c(F)c1` [Example 151] are less than 10 µM and 0.491 µM.
The corresponding values for `Cc1cnc(NC(=O)Cn2nc(OC3CC3)c3cc(Br)ccc3c2=O)nc1` [Example 152] are less than 10 µM and 0.173 µM.
In the case of `O=C(Cn1nc(OC2CCC2)c2cc(Br)ccc2c1=O)Nc1ncc(F)cn1` [Example 153, 2-(6-bromo-4-cyclobutyloxy-1-oxophthalazin-2-yl)-N-(5-fluoropyrimidin-2-yl)acetamide], the concentration for half-maximal inhibition (IC50) by setting is: (class column of Table 3) less than 10 µM; (numeric column of Table 3) 0.147 µM.
`CCOc1nn(CC(=O)Nc2ncc(F)cn2)c(=O)c2ccc(Br)cc12` [Example 154, 2-(6-bromo-4-ethoxy-1-oxophthalazin-2-yl)-N-(5-fluoropyrimidin-2-yl)acetamide]: the IC50 (class column of Table 3) was less than 10 µM and inhibition (numeric column of Table 3) was half-maximal at 0.68 µM (IC50).
In the same order, the values of `CC(C)Oc1nn(CC(=O)Nc2ncc(F)cn2)c(=O)c2ccc(Br)cc12` [Example 155, 2-(6-bromo-1-oxo-4-propan-2-yloxyphthalazin-2-yl)-N-(5-fluoropyrimidin-2-yl)acetamide] are less than 10 µM and 5.95 µM.
The corresponding values for `CC1(C)CC(Oc2nn(CC(=O)Nc3ncc(F)cn3)c(=O)c3ccc(Br)cc23)C1` [Example 156, 2-[6-bromo-4-(3,3-dimethylcyclobutoxy)-1-oxo-phthalazin-2-yl]-N-(5-fluoropyrimidin-2-yl)acetamide] are less than 10 µM and 0.07 µM.
Turning to `C[C@H]1C[C@@H](Oc2nn(CC(=O)Nc3ncc(F)cn3)c(=O)c3ccc(Br)cc23)C1` [Example 157, 2-[6-bromo-4-(3-cis-methylcyclobutoxy)-1-oxo-phthalazin-2-yl]-N-(5-fluoropyrimidin-2-yl)acetamide], the half-maximal inhibitory concentration (IC50) is, setting by setting: (class column of Table 3) less than 10 µM; (numeric column of Table 3) 0.139 µM.
For `C[C@H]1C[C@H](Oc2nn(CC(=O)Nc3ncc(F)cn3)c(=O)c3ccc(Br)cc23)C1` [Example 158, 2-[6-bromo-4-(3-trans-methylcyclobutoxy)-1-oxo-phthalazin-2-yl]-N-(5-fluoropyrimidin-2-yl)acetamide], the IC50 by setting is: (class column of Table 3) less than 10 µM; (numeric column of Table 3) 0.309 µM.
The corresponding values for `CCN1CCOCC(NC(=O)Cn2nc(C(C)C)c3cc(Br)ccc3c2=O)C1` (stereo not shown) [Example 159, 2-(6-bromo-1-oxo-4-propan-2-ylphthalazin-2-yl)-N-(4-ethyl-1,4-oxazepan-6-yl)acetamide] are less than 10 µM and 4.76 µM.
The corresponding values for `CO[C@H]1C[C@H](Oc2nn(CC(=O)Nc3ncc(F)cn3)c(=O)c3ccc(Br)cc23)C1` [Example 160] are less than 10 µM and 1.32 µM.
The corresponding values for `O=C(Cn1nc(OC2COC2)c2cc(Br)ccc2c1=O)Nc1ncc(F)cn1` [Example 161] are less than 10 µM and 3.63 µM.
`CC(F)COc1nn(CC(=O)Nc2ncc(F)cn2)c(=O)c2ccc(Br)cc12` (stereo not shown) [Example 162]: the 50% inhibitory concentration (IC50) was less than 10 µM (class column of Table 3) and 0.455 µM (numeric column of Table 3).
In the case of `COCCOc1nn(CC(=O)Nc2ncc(F)cn2)c(=O)c2ccc(Br)cc12` [Example 163], the concentration for half-maximal inhibition (IC50) by setting is: (class column of Table 3) less than 10 µM; (numeric column of Table 3) 3.77 µM.
In the same order, the values of `O=C(Cn1nc(C2CC2)c2cc(Br)ccc2c1=O)Nc1ncc(F)cn1` [Example 164, 2-(6-bromo-4-cyclopropyl-1-oxophthalazin-2-yl)-N-(5-fluoropyrimidin-2-yl)acetamide] are less than 10 µM and 0.149 µM.
In the same order, the values of `O=C(Cn1nc([C@H]2C[C@@H]2F)c2cc(Br)ccc2c1=O)Nc1ncc(F)cn1` [Example 167, 2-[6-bromo-4-[2-trans-fluorocyclopropyl]-1-oxophthalazin-2-yl]-N-(5-fluoropyrimidin-2-yl)acetamide] are greater than 15 µM and 16.1 µM.
The corresponding values for `O=C(Cn1nc(OC(F)C2CC2)c2cc(Br)ccc2c1=O)Nc1ncc(F)cn1` (stereo not shown) [Example 168, 2-[6-bromo-4-[cyclopropyl(fluoro)methoxy]-1-oxophthalazin-2-yl]-N-(5-fluoropyrimidin-2-yl)acetamide] are greater than 15 µM and 17.1 µM.
`CC(Oc1nn(CC(=O)Nc2ncc(F)cn2)c(=O)c2ccc(Br)cc12)C1CC1` (stereo not shown) [Example 169]: the IC50 is less than 10 µM (class column of Table 3) and 2.29 µM (numeric column of Table 3).
With `O=C(Cn1nc(OC2CN(CC(F)(F)F)C2)c2cc(Br)ccc2c1=O)Nc1ncc(F)cn1` [Example 170, 2-[6-bromo-1-oxo-4-[1-(2,2,2-trifluoroethyl)azetidin-3-yl]oxyphthalazin-2-yl]-N-(5-fluoropyrimidin-2-yl)acetamide], the IC50 by setting is: (class column of Table 3) less than 10 µM; (numeric column of Table 3) 0.493 µM.
Consider `N#C[C@H]1C[C@@H](Oc2nn(CC(=O)Nc3ncc(F)cn3)c(=O)c3ccc(Br)cc23)C1` [Example 171, 2-[6-bromo-4-(3-cis-cyanocyclobutyl)oxy-1-oxophthalazin-2-yl]-N-(5-fluoropyrimidin-2-yl)acetamide], for which the IC50 was less than 10 µM (class column of Table 3) and 5.85 µM (numeric column of Table 3).
The corresponding values for `CO[C@H]1C[C@@H](Oc2nn(CC(=O)Nc3ncc(F)cn3)c(=O)c3ccc(Br)cc23)C1` [Example 172, 2-[6-bromo-4-(3-cis-methoxycyclobutyl)oxy-1-oxophthalazin-2-yl]-N-(5-fluoropyrimidin-2-yl)acetamide] are less than 10 µM and 0.403 µM.
In the same order, the values of `O=C(Cn1nc(OC2CC2)c2cc(C3CC3)ccc2c1=O)Nc1ncc(F)cn1` [Example 173, 2-(6-cyclopropyl-4-cyclopropyloxy-1-oxophthalazin-2-yl)-N-(5-fluoropyrimidin-2-yl)acetamide] are less than 10 µM and 0.12 µM.
The corresponding values for `O=C(Cn1nc(OC2CC2)c2cc(C(F)(F)F)ccc2c1=O)Nc1ncc(F)cn1` [Example 174, 2-(4-cyclopropoxy-1-oxo-6-(trifluoromethyl)phthalazin-2(1H)-yl)-N-(5-fluoropyrimidin-2-yl)acetamide] are less than 10 µM and 0.515 µM.
Compound `CC(C)(C)OC(=O)N1CCC[C@@H](NC(=O)Cn2nc(OC3CC3)c3cc(Br)ccc3c2=O)C1` [Example 175, tert-butyl (3R)-3-[[2-(6-bromo-4-cyclopropyloxy-1-oxophthalazin-2-yl)acetyl]amino]piperidine-1-carboxylate] yielded a 50% inhibitory concentration (IC50) (class column of Table 3) of less than 10 µM and an IC50 (numeric column of Table 3) of 8.65 µM.
The corresponding values for `O=C(Cn1nc(OC2CC2)c2cc(Br)ccc2c1=O)N[C@@H]1CCCNC1` [Example 176, 2-(6-bromo-4-cyclopropyloxy-1-oxophthalazin-2-yl)-N-[(3R)-piperidin-3-yl]acetamide HCl salt] are less than 10 µM and 4.27 µM.
In the same order, the values of `O=C(Cn1nc(OC2CC2)c2cc(Br)ccc2c1=O)N[C@@H]1CCCN(C2CCC2)C1` [Example 177] are less than 10 µM and 0.213 µM.
The corresponding values for `O=C(Cn1nc(OC2CC2)c2cc(Br)ccc2c1=O)N[C@@H]1CCCN(C2CC2)C1` [Example 178] are less than 10 µM and 0.14 µM.
Regarding `O=C(Cn1nc(C(F)F)c2cc(Br)ccc2c1=S)Nc1ncc(F)cn1` [Example 179, 2-[6-bromo-4-(difluoromethyl)-1-thioxophthalazin-2-yl]-N-(5-fluoropyrimidin-2-yl)acetamide], the half-inhibitory concentration (IC50) was less than 10 µM (class column of Table 3) and 0.486 µM (numeric column of Table 3).
The corresponding values for `CN(C)c1ccc2c(=O)n(CC(=O)Nc3ncc(F)cn3)nc(Br)c2c1` [Example 180, 2-[4-bromo-6-(dimethylamino)-1-oxophthalazin-2-yl]-N-(5-fluoropyrimidin-2-yl)acetamide] are less than 10 µM and 4.86 µM.
Regarding `O=C(Cn1nc(Br)c2cc(Br)ccc2c1=O)Nc1ncc(F)cn1` [Example 181, 2-(4,6-Dibromo-1-Oxophthalazin-2-yl)-N-(5-Fluoropyrimidin-2-yl)Acetamide], the 50% inhibitory concentration (IC50) (class column of Table 3) was less than 10 µM and the IC50 (numeric column of Table 3) worked out at 0.23 µM.
The corresponding values for `O=C(Cn1nc(C(F)F)c2c(F)c(Br)ccc2c1=O)Nc1ncc(Cl)cn1` [Example 182] are less than 10 µM and 0.068 µM.

One may read the IC50 as the concentration that gives 50% inhibition. A higher IC50 goes with a need for much substance.
